This is an account of results in paper PMC9066070, “RGI‐GOLVEN signaling promotes cell surface immune receptor abundance to regulate plant immunity” (EMBO Reports, 2022).

Entries after “also recorded” stand apart in the source; their conditions may differ. Non-standard residues stand in square brackets, D forms with d. Residues, ends and D or L forms follow the SMILES beside them. No end group written: not given here. *: point of attachment. SO3H = sulfated tyrosine (TyrSO3H2), O=S(=O)(O)*; Hyp = O=C(O)[C@@H]1C[C@@H](O)CN1; Cbz = O=C(OCc1ccccc1)*

The subject of one test is 26S proteasome. Nature of the test: FLS2 accumulation in rgi5x after MG132 treatment, western blot. To be noted: rgi5x seedlings, 50 μM MG132, 1 h. The test is classed as in vivo, Arabidopsis thaliana. The protocol:
Figure 6 GLV2 perception by RGIs promotes maximal FLS2 abundance independent of transcription • Twelve‐day‐old WT or 35S::GLV2 8‐5 seedlings were treated with mock or 1 μM GLV2 for 24 h before protein extraction. Western blots were probed with α‐FLS2 or α‐BAK1 antibodies. CBB: Coomassie brilliant blue. • Quantitative real‐time PCR of FLS2 transcripts from 12‐day‐old seedlings treated with mock or 1 μM GLV2 for the indicated time, n = 3 biological replicates. UBQ was used as a house keeping gene. […] Western blot was probed with α‐FLS2 antibodies. • Protein extraction was performed from 12‐day‐old seedlings after 1 h treatment with mock or 50 μM MG132. Western blots were probed with α‐FLS2 antibodies. Data information: Similar results were obtained in three independent experiments. Source data are available online for this figure.
(In general: Immunoblotting shows a protein as a band on a membrane.)

For another test, the system named is FLS2 transcription. The arrangement: method as in Flury et al, 2013; Tintor et al, 2013; Hou et al, 2014. The following applies: ref Flury et al, 2013, Tintor et al, Hou et al, 2014; cited from earlier work.
A further test deals with PRR-BAK1 complex. The following applies: ref Stegmann et al, 2017; cited from earlier work. From the text:
FER controls FLS2-BAK1 and EFR-BAK1 complex formation independent of protein accumulation ([…] et al, [2017]). In contrast to GLV2 treatment, the FER ligand RALF23 inhibits PRR-BAK1 complex formation. […] Whether GLV2's promotion of PRR complex formation and the regulation of PRR ...

Test [1] addresses T1, ectodomain of RGI3 with C-terminal Strep II-9x His tag (RGI3^ECD-Strep II-9x His) (Arabidopsis thaliana, UniProt C0LGR3 25-703, fluorescent dye by Monolith Protein Labeling Kit RED-tris-NTA Second Generation (His-tag reactive)).
T1 construct: It was cloned into the baculovirus transfer vector pMeIBac B1 for secreted expression; not shown: Strep II-9x His, C-terminal, kept
T1 sequence (looked up): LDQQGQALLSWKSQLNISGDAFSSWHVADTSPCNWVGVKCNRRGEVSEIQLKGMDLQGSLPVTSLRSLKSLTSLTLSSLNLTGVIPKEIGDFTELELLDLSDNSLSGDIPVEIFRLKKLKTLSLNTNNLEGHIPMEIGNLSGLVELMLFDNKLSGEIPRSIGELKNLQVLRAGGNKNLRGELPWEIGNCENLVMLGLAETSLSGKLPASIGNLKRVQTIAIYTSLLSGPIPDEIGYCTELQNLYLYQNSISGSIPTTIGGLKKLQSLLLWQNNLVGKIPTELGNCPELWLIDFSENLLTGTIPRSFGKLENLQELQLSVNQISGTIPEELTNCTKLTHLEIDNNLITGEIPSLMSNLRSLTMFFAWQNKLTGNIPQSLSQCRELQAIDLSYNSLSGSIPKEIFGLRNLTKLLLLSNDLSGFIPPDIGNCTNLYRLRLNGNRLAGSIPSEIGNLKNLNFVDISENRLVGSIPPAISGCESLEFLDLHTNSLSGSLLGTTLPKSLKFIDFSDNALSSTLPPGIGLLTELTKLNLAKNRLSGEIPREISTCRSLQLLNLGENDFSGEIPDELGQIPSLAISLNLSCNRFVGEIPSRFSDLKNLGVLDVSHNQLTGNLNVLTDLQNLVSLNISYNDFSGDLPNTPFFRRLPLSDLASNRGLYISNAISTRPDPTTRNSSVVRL
The following applies: both partners purified.

For the molecule `CC(C)C[C@@H](C=O)NC(=O)[C@H](CC(C)C)NC(=O)[C@H](CC(C)C)NC(=O)OCc1ccccc1` [MG132] (Cbz-Leu-Leu-Leu-aldehyde), in the test with 26S proteasome, the “FLS2 accumulation defect of rgi5x” value is “partial restoration; also recorded: partially rescued”.

For “PIP1: PATHOGEN-ASSOCIATED MOLECULAR PATTERN (PAMP)-INDUCED PEPTIDE perceived by RLK7 (GRVLTEKSGDGSATMTVEKMKSTVDSWFQRLASGPSPRGRGH; PAMP-induced secreted peptide 1; UniProt Q1PE40 31-72, looked up)”, in the test with FLS2 transcription, the “FLS2 transcription” value is on record as “upregulation of FLS2 transcription”.

As to “RALF23: FER ligand; RAPID ALKALINIZATION FACTOR peptide (ATRRYISYGALRRNTIPCSRRGASYYNCRRGAQANPYSRGCSAITRCRRS; Protein RALF-like 23; UniProt Q9LUS7 89-138, looked up)”, the “PRR-BAK1 complex formation” value with PRR-BAK1 complex is on record as “inhibits PRR‐BAK1 complex formation”.

B1: GLV2 peptide without sulfated tyrosine (GLV2^-S) (peptide)
peptide: DMDYNSANKKRPIHN
modifications: without sulfated tyrosine
notes: mature GLV2 peptide cut from the GLV2 precursor, Arabidopsis thaliana, tyrosine not sulfated; also called GLV^-S; source: synthetic peptide (Pepmic, Suzhou, China; purity minimum 90%)
What is called Kd is a measure of binding affinity in units of concentration. In test [1], B1 gave a Kd of 129 nM.

B2: GOLVEN2 (GLV2) peptide, tyrosine-sulfated (peptide)
peptide: DMDY(SO3H)NSANKKR[Hyp]IHN
notes: mature GLV2 peptide cut from the GLV2 precursor, Arabidopsis thaliana; also called synthetic GLV2; source: synthetic peptide (Pepmic, Suzhou, China; purity minimum 90%)
For B2, the Kd in test [1] came out at 11.8 nM.
